{"source": "patent US8648097B2", "about": "“Pyridylaminoacetic acid compound” (Ube Industries, Ltd., priority 2008, dated 2014)", "key": {"[1]": {"biological_target": "T1, EP2 (Homo sapiens, UniProt P43116)", "T1 sequence (P43116 whole entry)": "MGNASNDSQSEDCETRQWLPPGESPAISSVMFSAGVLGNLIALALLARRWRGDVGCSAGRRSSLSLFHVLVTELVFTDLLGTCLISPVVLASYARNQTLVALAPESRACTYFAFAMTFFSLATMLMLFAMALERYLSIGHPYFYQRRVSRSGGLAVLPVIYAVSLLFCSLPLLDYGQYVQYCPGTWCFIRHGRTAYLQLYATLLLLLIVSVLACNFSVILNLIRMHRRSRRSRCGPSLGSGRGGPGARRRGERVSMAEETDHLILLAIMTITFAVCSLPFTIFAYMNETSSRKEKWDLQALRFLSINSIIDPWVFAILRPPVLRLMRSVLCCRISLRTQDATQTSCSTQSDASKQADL", "experiment": "Measurement of EP2 agonist activity (cAMP in HEK293 cells)", "assay_type": "cell-based", "parameters": "host or cells: HEK293 cells", "conditions": "amount of cAMP in HEK293 cells (ES-562-C, Euroscreen), 30 minutes", "experimental": "Measurement of EP2 agonist activity was carried out in compliance with the method of Wilson et al. (European Journal of Pharmacology, 501, 49 (2004)). HEK293 cells (ES-562-C, Euroscreen) were cultured in MEM medium containing 10% FBS and seeded at 2×10^4 cells per well of a 96-well plate. On the following day, the medium was replaced with serum-free MEM medium containing 3-isobutyl-1-methylxanthine (final concentration: 500 μM) and after culturing for 30 minutes, a test compound dissolved in dimethylsulfoxide was added followed by allowing to stand undisturbed in a carbon dioxide incubator. After 30 minutes, the amount of cAMP in the cells was measured with a cAMP Biotrak EIA System kit (GE Healthcare Sciences)."}, "[2]": {"biological_target": "T1, EP2", "experiment": "Measurement of EP2 receptor binding action", "parameters": "expressed in transfected cells; host or cells: HEK293 cells (membrane fraction)", "experimental": "Measurement of EP2 receptor binding action was carried out in compliance with the method of Abramovitz et al. (Biochimica et Biophysica Acta, 1483, 285 (2000)). […] The membrane fraction was recovered on glass fiber filter paper (GF/B, Whatmann) using a cell harvester (M30R, Brandel), and after washing with buffer solution (10 mM MES-KOH (pH 6.0), 10 mM MgCl2), radioactivity was measured with a liquid scintillation analyzer (2000CA, Packard). […] The dissociation constant (Kd) was calculated by Scatchard analysis. Furthermore, a Compound A shown in the table is a sodium salt of {3-[(4-tert-butylbenzyl)(pyridin-3-ylsulfonyl)aminomethyl]-phenoxy}acetic acid (CP-533,536), which is the compound of Example 14e of WO 99/19300A, and is a control compound having EP2 receptor binding action."}, "[3]": {"system": "isolated guinea pig trachea", "experiment": "Isolated guinea pig trachea relaxation test", "conditions": "50% relaxation of 0.1 μM carbachol-induced contraction", "experimental": "The tracheas were isolated from guinea pigs (Hartley, male, age 7 to 9 weeks, supplier: Nippon SLC) followed by cutting as rings containing cartilage. Trachea specimens were prepared by cutting the side opposite from the smooth muscle from the rings. The trachea specimens were suspended in Krebs solution containing 3 μM indomethacin while applying a load of 0.5 g, and changes in tension were measured through an FD pickup (TB-611T, Nippon Kohden). The trachea specimens were then warmed to 37° C. and perfused with a mixed gas consisting of 95% oxygen and 5% carbon dioxide. Next, after causing the trachea specimen to contract by adding 0.1 μM carbachol, a test compound dissolved in dimethylsulfoxide was cumulatively added starting at a low concentration to cause the trachea specimen to relax."}, "[4]": {"conditions": "read-out: Ki Value of EP2 Receptor Binding Action"}}, "note": "Structures can show the parent of a compound that is named as a salt. Where two headings read alike, the source gives them in different places."}
{"smiles": "COc1ccc2cc(CN(Cc3cccc(NCC(=O)O)n3)S(=O)(=O)c3cccnc3)sc2c1", "note": "[Example 15, {6-[(6-Methoxybenzo[b]thiophen-2-ylmethyl)(pyridin-3-ylsulfonyl)aminomethyl]-pyridin-2-ylamino}acetic acid hydrochloride]", "values": [{"measurement": "EC50", "setting": "[1]", "value": 0.96, "unit": "nM"}, {"measurement": "Ki", "setting": "[2]; [4]", "value": 9.4, "unit": "nM"}, {"measurement": "IC50", "setting": "[3]; Cavia porcellus", "value": 2.6, "unit": "nM"}]}
{"smiles": "O=C(O)CNc1cccc(CN(Cc2ccc(-n3cccn3)cc2)S(=O)(=O)c2ccccn2)n1", "note": "[Example 21, (6-{[4-(Pyrazol-1-yl)benzyl](pyridin-2-ylsulfonyl)aminomethyl}pyridin-2-ylamino)-acetic acid]", "values": [{"measurement": "EC50", "setting": "[1]", "value": 1.1, "unit": "nM"}]}
{"smiles": "O=C(O)CNc1cccc(CN(Cc2cc3ccccc3s2)S(=O)(=O)c2cccnc2)n1", "note": "[Example 13, {6-[(Benzo[b]thiophen-2-ylmethyl)(pyridin-3-ylsulfonyl)aminomethyl]pyridin-2-ylamino}acetic acid hydrochloride]", "values": [{"measurement": "EC50", "setting": "[1]", "value": 3.4, "unit": "nM"}, {"measurement": "Ki", "setting": "[2]; [4]", "value": 13, "unit": "nM"}]}
{"smiles": "O=C(O)CNc1cccc(CN(Cc2ccc(-c3cscn3)cc2)S(=O)(=O)c2ccccn2)n1", "note": "[Example 16, (6-{(Pyridin-2-ylsulfonyl)[4-(thiazol-4-yl)benzyl]aminomethyl}pyridin-2-ylamino)-acetic acid]", "values": [{"measurement": "EC50", "setting": "[1]", "value": 0.62, "unit": "nM"}, {"measurement": "Ki", "setting": "[2]; [4]", "value": 3.1, "unit": "nM"}, {"measurement": "IC50", "setting": "[3]; Cavia porcellus", "value": 2.6, "unit": "nM"}]}
{"smiles": "CC(C)(C)c1ccc(CN(Cc2cccc(OCC(=O)O)c2)S(=O)(=O)c2cccnc2)cc1", "note": "[Compound A, {3-[(4-tert-butylbenzyl)(pyridin-3-ylsulfonyl)aminomethyl]-phenoxy}acetic acid, reference compound]", "values": [{"measurement": "IC50", "setting": "[3]; Cavia porcellus", "value": 86, "unit": "nM"}]}
{"smiles": "O=C(O)CNc1cccc(CN(Cc2ccc(-c3ncccn3)cc2)S(=O)(=O)c2ccccn2)n1", "note": "[Example 18, (6-{(Pyridin-2-ylsulfonyl)[4-(pyrimidin-2-yl)benzyl]aminomethyl}pyridin-2-ylamino)-acetic acid hydrochloride]", "values": [{"measurement": "EC50", "setting": "[1]", "value": 5, "unit": "nM"}, {"measurement": "Ki", "setting": "[2]; [4]", "value": 9.2, "unit": "nM"}]}
{"smiles": "O=C(O)CNc1cccc(CN(Cc2ccc(-c3nccs3)cc2)S(=O)(=O)c2ccc(F)cc2)n1", "note": "[Example 4, (6-{(4-Fluorobenzenesulfonyl)[4-(thiazol-2-yl)benzyl]aminomethyl}pyridin-2-ylamino)acetic acid]", "values": [{"measurement": "EC50", "setting": "[1]", "value": 0.29, "unit": "nM"}, {"measurement": "Ki", "setting": "[2]; [3H]prostaglandin E2 10 nM, membrane fraction of HEK293 cells expressing human EP2 receptor, read-out: Ki Value of EP2 Receptor Binding Action", "value": 2.8, "unit": "nM"}, {"measurement": "IC50", "setting": "[3]", "value": 4.5, "unit": "nM"}]}
{"smiles": "O=C(O)CNc1cccc(CN(Cc2ccc(-c3ccc(F)cc3)cc2)S(=O)(=O)c2cccnc2)n1", "note": "[Example 9, {6-[(4′-Fluorobiphenyl-4-ylmethyl)(pyridin-3-ylsulfonyl)aminomethyl]pyridin-2-ylamino}acetic acid hydrochloride]", "values": [{"measurement": "Ki", "setting": "[2]; [4]", "value": 4.4, "unit": "nM"}]}
{"smiles": "O=C(O)CNc1cccc(CN(Cc2ccc(-c3nccs3)cc2)S(=O)(=O)c2ccccn2)n1", "note": "[Example 3, (6-{(Pyridin-2-ylsulfonyl)[4-(thiazol-2-yl)benzyl]aminomethyl}pyridin-2-ylamino)-acetic acid]", "values": [{"measurement": "EC50", "setting": "[1]", "value": 0.45, "unit": "nM"}, {"measurement": "Ki", "setting": "[2]; [4]", "value": 1.9, "unit": "nM"}]}
{"smiles": "O=C(O)CNc1cccc(CN(Cc2ccc(-n3cccn3)cc2)S(=O)(=O)c2cccnc2)n1", "note": "[Example 7, (6-{[4-(Pyrazol-1-yl)benzyl](pyridin-3-ylsulfonyl)aminomethyl}pyridin-2-ylamino)-acetic acid hydrochloride]", "values": [{"measurement": "EC50", "setting": "[1]", "value": 2.8, "unit": "nM"}]}
{"smiles": "O=C(O)CNc1cccc(CN(Cc2ccc(-c3nc(C(F)(F)F)cs3)cc2)S(=O)(=O)c2ccccn2)n1", "note": "[Example 25, (6-{(Pyridin-2-ylsulfonyl)[4-(4-trifluoromethylthiazol-2-yl)benzyl]aminomethyl}-pyridin-2-ylamino)acetic acid]", "values": [{"measurement": "EC50", "setting": "[1]", "value": 7.9, "unit": "nM"}]}
{"smiles": "O=C(O)CNc1cccc(CN(Cc2cc3ccccc3o2)S(=O)(=O)c2cccnc2)n1", "note": "[Example 8, {6-[(Benzofuran-2-ylmethyl)(pyridin-3-ylsulfonyl)aminomethyl]pyridin-2-ylamino}-acetic acid hydrochloride]", "values": [{"measurement": "EC50", "setting": "[1]", "value": 5.6, "unit": "nM"}]}
{"smiles": "O=C(O)CNc1cccc(CN(Cc2ccc(C3=NCCS3)cc2)S(=O)(=O)c2ccc(F)cc2)n1", "note": "[Example 5, (6-{[4-(4,5-Dihydrothiazol-2-yl)benzyl](4-fluorobenzenesulfonyl)aminomethyl}-pyridin-2-ylamino)acetic acid]", "values": [{"measurement": "EC50", "setting": "[1]", "value": 1.8, "unit": "nM"}, {"measurement": "Ki", "setting": "[2]; [4]", "value": 7, "unit": "nM"}]}
{"smiles": "O=C(O)CNc1cccc(CN(Cc2ccc(-c3ccccc3)cc2)S(=O)(=O)c2cccnc2)n1", "note": "[Example 6, {6-[(Biphenyl-4-ylmethyl)(pyridin-3-ylsulfonyl)aminomethyl]pyridin-2-ylamino}acetic acid hydrochloride]", "values": [{"measurement": "EC50", "setting": "[1]", "value": 2, "unit": "nM"}, {"measurement": "Ki", "setting": "[2]", "value": 3.8, "unit": "nM"}]}
{"smiles": "O=C(O)CNc1cccc(CN(Cc2ccc(-c3ccccn3)cc2)S(=O)(=O)c2cccnc2)n1", "note": "[Example 19, (6-{[4-(Pyridin-2-yl)benzyl](pyridin-3-ylsulfonyl)aminomethyl}pyridin-2-ylamino)-acetic acid]", "values": [{"measurement": "EC50", "setting": "[1]", "value": 2, "unit": "nM"}]}
{"smiles": "O=C(O)CNc1cccc(CN(Cc2ccc(-c3nccs3)cc2)S(=O)(=O)c2cccnc2)n1", "note": "[Example 2, (6-{(Pyridin-3-ylsulfonyl)[4-(thiazol-2-yl)benzyl]aminomethyl}pyridin-2-ylamino)-acetic acid]", "values": [{"measurement": "IC50", "setting": "[3]; Cavia porcellus", "value": 5.7, "unit": "nM"}]}
{"smiles": "O=C(O)CNc1cccc(CN(Cc2ccc(-n3cccn3)cc2)S(=O)(=O)c2ccc(F)cc2)n1", "note": "[Example 26, (6-{(4-Fluorobenzenesulfonyl)[4-(pyrazol-1-yl)benzyl]aminomethyl}pyridin-2-ylamino)acetic acid]", "values": [{"measurement": "EC50", "setting": "[1]", "value": 0.78, "unit": "nM"}]}
{"smiles": "O=C(O)CNc1cccc(CN(Cc2ccc(-c3ccccc3)cc2)S(=O)(=O)c2ccccn2)n1", "note": "[Example 17, {6-[(Biphenyl-4-ylmethyl)(pyridin-2-ylsulfonyl)aminomethyl]pyridin-2-ylamino}acetic acid hydrochloride]", "values": [{"measurement": "EC50", "setting": "[1]", "value": 1.8, "unit": "nM"}, {"measurement": "Ki", "setting": "[2]; [4]", "value": 1.5, "unit": "nM"}, {"measurement": "IC50", "setting": "[3]; Cavia porcellus", "value": 2.6, "unit": "nM"}]}
{"smiles": "O=C(O)CNc1cccc(CN(Cc2cc3ccc(Cl)cc3s2)S(=O)(=O)c2cccnc2)n1", "note": "[Example 12, {6-[(6-Chlorobenzo[b]thiophen-2-ylmethyl)(pyridin-3-ylsulfonyl)aminomethyl]pyridin-2-ylamino}acetic acid hydrochloride]", "values": [{"measurement": "EC50", "setting": "[1]", "value": 0.49, "unit": "nM"}, {"measurement": "Ki", "setting": "[2]; [4]", "value": 1.1, "unit": "nM"}]}
{"smiles": "O=C(O)CNc1cccc(CN(Cc2ccc(-c3nccs3)cc2)S(=O)(=O)c2cccnc2)n1", "note": "[Example 11, (6-{(Pyridin-3-ylsulfonyl) [4-(thiazol-2-yl)benzyl]aminomethyl}pyridin-2-ylamino)-acetic acid trifluoroacetate]", "values": [{"measurement": "EC50", "setting": "[1]", "value": 0.42, "unit": "nM"}, {"measurement": "Ki", "setting": "[2]; [4]", "value": 3.8, "unit": "nM"}]}
